Row | SMILES | melting point
1 | CCCCOCCOc1ccc(-c2ccc3c(c2)C=C(C(=O)Nc2ccc(C(O)c4cc(C)cc[n+]4[O-])cc2)CCN3)cc1 (centres unmarked) [Compound 1, 7-[4-(2-butoxyethoxy)phenyl]-N-[4-[hydroxy(4-methyl-1-oxidopyridin-2-yl)methyl]phenyl]-2,3-dihydro-1H-1-benzazepine-4-carboxamide] | 198 to 201 °C (dec.)
2 | CCCCOCCOc1ccc(-c2ccc3c(c2)C=C(C(=O)Nc2ccc(C(O)c4cccc[n+]4[O-])c(OC)c2)CCN3)cc1 (centres unmarked) [Compound 3, 7-[4-(2-butoxyethoxy)phenyl]-N-[4-[hydroxy(1-oxidopyridin-2-yl)methyl]-3-methoxyphenyl]-2,3-dihydro-1H-1-benzazepine-4-carboxamide] | 116 to 118 °C
3 | CCCCOCCOc1ccc(-c2ccc3c(c2)C=C(C(=O)Nc2ccc(C(O)c4cccc[n+]4[O-])c(Cl)c2)CCN3CC(C)C)cc1 (centres unmarked) [Compound 6, 7-[4-(2-butoxyethoxy)phenyl]-N-[3-chloro-4-[hydroxy(1-oxidopyridin-2-yl)methyl]phenyl]-1-isobutyl-2,3-dihydro-1H-1-benzazepine-4-carboxamide] | 105 to 107 °C
4 | CCCCOCCOc1ccc(-c2ccc3c(c2)C=C(C(=O)Nc2ccc(C(O)c4cccc[n+]4[O-])c(C)c2)CCN3)cc1 (centres unmarked) [Compound 7, 7-[4-(2-butoxyethoxy)phenyl]-N-[4-[hydroxy(1-oxidopyridin-2-yl)methyl]-3-methylphenyl]-2,3-dihydro-1H-1-benzazepine-4-carboxamide] | 179 to 182 °C (dec.)
5 | CCCCOCCOc1ccc(-c2ccc3c(c2)C=C(C(=O)Nc2ccc(C(O)c4cc(C)cc[n+]4[O-])c(OC)c2)CCN3CC(C)C)cc1 (centres unmarked) [Compound 10, 7-[4-(2-butoxyethoxy)phenyl]-N-[4-[hydroxy(4-methyl-1-oxidopyridin-2-yl)methyl]-3-methoxyphenyl]-1-isobutyl-2,3-dihydro-1H-1-benzazepine-4-carboxamide] | 174 to 176 °C
6 | CCCCOCCOc1ccc(-c2ccc3c(c2)C=C(C(=O)Nc2ccc(C(O)c4cc(C)cc[n+]4[O-])c(OCC)c2)CCN3)cc1 (centres unmarked) [Compound 11, 7-[4-(2-butoxyethoxy)phenyl]-N-[3-ethoxy-4-[hydroxy(4-methyl-1-oxidopyridin-2-yl)methyl]phenyl]-2,3-dihydro-1H-1-benzazepine-4-carboxamide] | 110 to 115 °C
7 | CCCCOCCOc1ccc(-c2ccc3c(c2)C=C(C(=O)Nc2ccc(C(O)c4cc(C)cc[n+]4[O-])c(OCC)c2)CCN3CC(C)C)cc1 (centres unmarked) [Compound 12, 7-[4-(2-butoxyethoxy)phenyl]-N-[3-ethoxy-4-[hydroxy(4-methyl-1-oxidopyridin-2-yl)methyl]phenyl]-1-isobutyl-2,3-dihydro-1H-1-benzazepine-4-carboxamide] | 108 to 110 °C
8 | CCCCOCCOc1ccc(-c2ccc3c(c2)C=C(C(=O)Nc2ccc(C(O)c4cc(C)cc[n+]4[O-])c(C(F)(F)F)c2)CCN3)cc1 (centres unmarked) [Compound 16, 7-[4-(2-butoxyethoxy)phenyl]-N-[4-[hydroxy(4-methyl-1-oxidopyridin-2-yl)methyl]-3-trifluoromethylphenyl]-2,3-dihydro-1H-1-benzazepine-4-carboxamide] | 124 to 128 °C
9 | CCCCOCCOc1ccc(-c2ccc3c(c2)C=C(C(=O)Nc2ccc(C(O)c4cc(C)cc[n+]4[O-])c(C(F)(F)F)c2)CCN3CCC)cc1 (centres unmarked) [Compound 17, 7-[4-(2-butoxyethoxy)phenyl]-N-[4-[hydroxy(4-methyl-1-oxidopyridin-2-yl)methyl]-3-trifluoromethylphenyl]-1-propyl-2,3-dihydro-1H-1-benzazepine-4-carboxamide] | 103 to 105 °C
10 | CCCCOCCOc1ccc(-c2ccc3c(c2)C=C(C(=O)Nc2ccc(C(O)c4cccc[n+]4[O-])c(OCC(F)(F)F)c2)CCN3CC(C)C)cc1 (centres unmarked) [Compound 23, 7-[4-(2-butoxyethoxy)phenyl]-1-isobutyl-N-[4-[hydroxy(1-oxidopyridin-2-yl)methyl]-3-(2,2,2-trifluoroethoxy)phenyl]-2,3-dihydro-1H-1-benzazepine-4-carboxamide] | 118 to 123 °C
11 | CCCCOCCOc1ccc(-c2ccc3c(c2)C=C(C(=O)Nc2ccc(OCc4nccn4CCC)cc2)CCN3CC(C)C)cc1 [Compound 25, 7-[4-(2-butoxyethoxy)phenyl]-1-isobutyl-N-[4-[(1-propylimidazole-2-yl)methoxy]phenyl]-2,3-dihydro-1H-1-benzazepine-4-carboxamide] | 118 to 120 °C
12 | CCCCOCCOc1ccc(-c2ccc3c(c2)C=C(C(=O)Nc2ccc(SCc4nncn4CC(C)C)cc2)CCN3CCC)cc1 [Compound 32, 7-[4-(2-butoxyethoxy)phenyl]-N-[4-[(4-isobutyl-4H-1,2,4-triazol-3-yl)methylthio]phenyl]-1-propyl-2,3-dihydro-1H-1-benzazepine-4-carboxamide] | 130 to 132 °C
13 | CCCCOCCOc1ccc(-c2ccc3c(c2)C=C(C(=O)Nc2ccc([S+]([O-])Cc4nncn4CC(C)C)cc2)CCN3CCC)cc1 (centres unmarked) [Compound 33, 7-[4-(2-butoxyethoxy)phenyl]-N-[4-((4-isobutyl-4H-1,2,4-triazol-3-yl)methylsulfinyl]phenyl]-1-propyl-2,3-dihydro-1H-1-benzazepine-4-carboxamide] | 186 to 190 °C (dec.)
14 | CCCCOCCOc1ccc(-c2ccc3c(c2)C=C(C(=O)Nc2ccc([S+]([O-])Cc4nnc(C)c(C)n4)cc2)CCN3CC(C)C)cc1 (centres unmarked) [Compound 37, 7-[4-(2-butoxyethoxy)phenyl]-N-[4-[(5,6-dimethyl-1,2,4-triazin-3-yl)methylsulfinyl]phenyl]-1-isobutyl-2,3-dihydro-1H-1-benzazepine-4-carboxamide] | 178 to 183 °C (dec.)
15 | CCCCOCCOc1ccc(-c2ccc3c(c2)C=C(C(=O)Nc2ccc(SCc4nncn4CCC)c(C(F)(F)F)c2)CCN3CC(C)C)cc1 [Compound 42, 7-[4-(2-butoxyethoxy)phenyl]-1-isobutyl-N-[3-trifluoromethyl-4-[(4-propyl-4H-1,2,4-triazol-3-yl)methylthio]phenyl]-2,3-dihydro-1H-1-benzazepine-4-carboxamide] | 131 to 133 °C
16 | CCCCOCCOc1ccc(-c2ccc3c(c2)C=C(C(=O)Nc2ccc([S+]([O-])CCc4nncn4CCC)cc2)CCN3CCC)cc1 (centres unmarked) [Compound 52, 7-[4-(2-butoxyethoxy)phenyl]-1-propyl-N-[4-[2-(4-propyl-4H-1,2,4-triazol-3-yl)ethylsulfinyl]phenyl]-2,3-dihydro-1H-1-benzazepine-4-carboxamide] | 93 to 101 °C
17 | CCCCOCCOc1ccc(-c2ccc3c(c2)C=C(C(=O)Nc2ccc([S+]([O-])Cc4nncn4CCC)nc2)CCN3CC(C)C)cc1 (centres unmarked) [Compound 54, 7-[4-(2-butoxyethoxy)phenyl]-1-isobutyl-N-[2-(4-propyl-4H-1,2,4-triazol-3-yl)methylsulfinylpyridin-5-yl]-2,3-dihydro-1H-1-benzazepine-4-carboxamide] | 135 to 138 °C
18 | CCCCOCCOc1ccc(-c2ccc3c(c2)C=C(C(=O)Nc2ccc(CCCn4cnnc4)cc2)CCN3CCC)cc1 [Compound 64, 7-[4-(2-butoxyethoxy)phenyl]-1-propyl-N-[4-[3-(4H-1,2,4-triazol-4-yl)propyl]phenyl]-2,3-dihydro-1H-1-benzazepine-4-carboxamide] | 191 to 194 °C
19 | CCCCOCCOc1ccc(-c2ccc3c(c2)C=C(C(=O)Nc2ccc(SCc4n[nH]c(=O)n4CCC)cc2)CCN3CC(C)C)cc1 [Compound 65, 7-[4-(2-butoxyethoxy)phenyl]-1-isobutyl-N-[4-[(4-propyl-1H-1,2,4-triazol-5-on-3-yl)methylthio]phenyl]-2,3-dihydro-1H-1-benzazepine-4-carboxamide] | 98 to 101 °C
20 | CCCCOCCOc1ccc(-c2ccc3c(c2)C=C(C(=O)Nc2ccc([C@H](O)c4ccccn4)cc2)CCN3C=O)cc1 [Compound 75, 7-[4-(2-butoxyethoxy)phenyl]-1-formyl-N-[4-[(S)-hydroxy(2-pyridyl)methyl]phenyl]-2,3-dihydro-1H-1-benzazepine-4-carboxamide] | 130 to 134 °C
21 | CCCCOCCOc1ccc(-c2ccc3c(c2)C=C(C(=O)Nc2ccc([C@@H](O)c4ccccn4)cc2)CCN3C=O)cc1 [Compound 76, 7-[4-(2-butoxyethoxy)phenyl]-1-formyl-N-[4-[(R)-hydroxy(2-pyridyl)methyl]phenyl]-2,3-dihydro-1H-1-benzazepine-4-carboxamide] | 110 to 112 °C
22 | CCCCOCCOc1ccc(-c2ccc3c(c2)C=C(C(=O)Nc2ccc([C@H](O)c4cccc[n+]4[O-])cc2)CCN3C=O)cc1 [Compound 77, 7-[4-(2-butoxyethoxy)phenyl]-1-formyl-N-[4-[(S)-hydroxy(1-oxidopyridin-2-yl)methyl]phenyl]-2,3-dihydro-1H-1-benzazepine-4-carboxamide] | 120 to 125 °C
23 | CCCCOCCOc1ccc(-c2ccc3c(c2)C=C(C(=O)Nc2ccc([C@@H](O)c4cccc[n+]4[O-])cc2)CCN3C=O)cc1 [Compound 78, 7-[4-(2-butoxyethoxy)phenyl]-1-formyl-N-[4-[(R)-hydroxy(1-oxidopyridin-2-yl)methyl]phenyl]-2,3-dihydro-1H-1-benzazepine-4-carboxamide] | 104 to 106 °C
24 | CCCCOCCOc1ccc(-c2ccc3c(c2)C=C(C(=O)Nc2ccc([C@H](O)c4ccccn4)cc2)CCN3C(=O)C(F)(F)F)cc1 [Compound 79, 7-[4-(2-butoxyethoxy)phenyl]-N-[4-[(S)-hydroxy(2-pyridyl)methyl]phenyl]-1-trifluoroacetyl-2,3-dihydro-1H-1-benzazepine-4-carboxamide] | 100 to 102 °C
25 | CCCCOCCOc1ccc(-c2ccc3c(c2)C=C(C(=O)Nc2ccc([C@H](O)c4cccc[n+]4[O-])cc2)CCN3C(=O)C(F)(F)F)cc1 [Compound 80, 7-[4-(2-butoxyethoxy)phenyl]-N-[4-[(S)-hydroxy(1-oxidopyridin-2-yl)methyl]phenyl]-2,3-dihydro-1-trifluoroacetyl-1H-1-benzazepine-4-carboxamide] | 107 to 110 °C
26 | CCCCOCCOc1ccc(-c2ccc3c(c2)C=C(C(=O)Nc2ccc([C@H](O)c4cccc[n+]4[O-])cc2)CCN3CCC)cc1 [Compound 83, 7-[4-(2-butoxyethoxy)phenyl]-N-[4-[(S)-hydroxy(1-oxidopyridin-2-yl)methyl]phenyl]-1-propyl-2,3-dihydro-1H-1-benzazepine-4-carboxamide] | 87 to 89 °C

Reference: patent publication US7262185B2, “Benzazepine derivative, process for producing the same, and use” (Takeda Chemical Industries Ltd., priority 2001, dated 2007)
